Results published in EP3875080B1, “DOSAGE FORM PROVIDING PROLONGED RELEASE OF […] SALT” (priority 2020, dated 2021).
Counter-ions that a name gives are not always drawn. Like-named read-outs stand apart in the source and are kept apart here.

Experiments:
[1] = in vivo, cited from earlier work
[2] = intrinsic dissolution (dissolution rate), Wood's apparatus; assay type: physicochemical
Procedure: 100 mg of Tapentadol, either in form of the hydrochloride salt or the dihydrogenphosphate salt (mixed form [batch with fine particles], pure hemihydrate or pure anhydrate) were compressed at a compressing force of 200 kg (gravitational) for 1 minute at a surface of 0.5 cm^2. The thus obtained compressed samples were investigated for their dissolution rate in a Wood's apparatus at 37 °C in 900 mL of dissolution medium at different pH values and a rotational speed of the paddle of 50 rpm.

[3] = thermodynamic solubility (saturation solubility); assay type: physicochemical; settings: for solubility thermodynamic at 24 h: thermodynamic from solid, read-out: thermodynamic solubility, assay expressed as base
Procedure: The thermodynamic solubility of Tapentadol hydrochloride and of Tapentadol dihydrogen-phosphate (mixed form, batch with fine particles) was determined as saturation solubility in various media at various pH values. The solutions were stirred for 24 hours at 25 °C and the pH values of the solutions at the start and at the end of the experiments were measured. The dissolved amount of Tapentadol was quantified by HPLC (free base of Tapentadol).

[4] = in vitro dissolution of Tapentadol from tablets, paddle apparatus Ph. Eur.; assay type: physicochemical; settings: for ethanol induced dose dumping: 0.1 N HCl (pH 1.0) containing 40 vol.-% ethanol compared to pH 1.0
Procedure: The in vitro dissolution of Tapentadol from the tablets (drug load 250 mg, C-1, I-1 and I-3) was measured in a paddle apparatus in accordance with Ph. Eur., equipped with sinker, at a rotational speed of 50 rpm at 37 °C in 900 ml of different dissolution media having different pH values. The experimental results are compiled in the table here below:
The in vitro dissolution of Tapentadol from the tablets (drug load 250 mg, I-4) was measured in a paddle apparatus in accordance with Ph. Eur., equipped with sinker, at a rotational speed of 50 rpm at 37 °C in 900 ml of 0.1 N HCl without ethanol (pH 1.0) and in 0.1 N HCl with 40 vol.-% ethanol (pH 1.0).

## COc1ccc2c3c1O[C@H]1C(=O)CC[C@H]4[C@@H](C2)N(C)CC[C@]314 [Hydrocodone]
[1]
  Maximum individual Cmax ratio with 40% alcohol: 3.9
  mean increase in Cmax ratio relative to drug co-ingested with 0% alcohol: 2.3

## CN1CC[C@]23c4c5ccc(O)c4O[C@H]2C(=O)CC[C@@]3(O)[C@H]1C5 [Oxymorphone]
[1]
  Maximum individual Cmax ratio with 40% alcohol: 2.70
  mean increase in Cmax ratio relative to drug co-ingested with 0% alcohol: 1.70

## CC[C@@H](c1cccc(O)c1)[C@@H](C)CN(C)C.O=P(O)(O)O [Tapentadol dihydrogenphosphate anhydrate]
[2]; pH 1.2, 0 min
  intrinsic dissolution (dissolution rate): 0%
[2]; pH 1.2, 1 min
  intrinsic dissolution (dissolution rate): 15%
[2]; pH 1.2, 3 min
  intrinsic dissolution (dissolution rate): 37%
[2]; pH 1.2, 5 min
  intrinsic dissolution (dissolution rate): 57%
[2]; pH 1.2, 7 min
  intrinsic dissolution (dissolution rate): 75%
[2]; pH 1.2, 9 min
  intrinsic dissolution (dissolution rate): 85%
[2]; pH 6.8, 0 min
  intrinsic dissolution (dissolution rate): 0%
[2]; pH 6.8, 1 min
  intrinsic dissolution (dissolution rate): 13%
[2]; pH 6.8, 3 min
  intrinsic dissolution (dissolution rate): 36%
[2]; pH 6.8, 5 min
  intrinsic dissolution (dissolution rate): 66%
[2]; pH 6.8, 7 min
  intrinsic dissolution (dissolution rate): 90%
[2]; pH 6.8, 9 min
  intrinsic dissolution (dissolution rate): 96%

## CC[C@@H](c1cccc(O)c1)[C@@H](C)CN(C)C.CC[C@@H](c1cccc(O)c1)[C@@H](C)CN(C)C.O.O=P(O)(O)O.O=P(O)(O)O [Tapentadol dihydrogenphosphate hemihydrate]
[2]; pH 1.2, 0 min
  intrinsic dissolution (dissolution rate): 0%
[2]; pH 1.2, 1 min
  intrinsic dissolution (dissolution rate): 14%
[2]; pH 1.2, 3 min
  intrinsic dissolution (dissolution rate): 37%
[2]; pH 1.2, 5 min
  intrinsic dissolution (dissolution rate): 54%
[2]; pH 1.2, 7 min
  intrinsic dissolution (dissolution rate): 72%
[2]; pH 1.2, 9 min
  intrinsic dissolution (dissolution rate): 84%
[2]; pH 6.8, 0 min
  intrinsic dissolution (dissolution rate): 0%
[2]; pH 6.8, 1 min
  intrinsic dissolution (dissolution rate): 12%
[2]; pH 6.8, 3 min
  intrinsic dissolution (dissolution rate): 36%
[2]; pH 6.8, 5 min
  intrinsic dissolution (dissolution rate): 66%
[2]; pH 6.8, 7 min
  intrinsic dissolution (dissolution rate): 80%
[2]; pH 6.8, 9 min
  intrinsic dissolution (dissolution rate): 83%

## CC[C@@H](c1cccc(O)c1)[C@@H](C)CN(C)C [Tapentadol hydrochloride, reference compound]
[2]; pH 1.0, 0 min
  intrinsic dissolution (dissolution rate): 0%
[2]; pH 1.0, 1 min
  intrinsic dissolution (dissolution rate): 52%
[2]; pH 1.0, 3 min
  intrinsic dissolution (dissolution rate): 95%
[2]; pH 1.0, 5 min
  intrinsic dissolution (dissolution rate): 99%
[2]; pH 1.0, 7 min
  intrinsic dissolution (dissolution rate): 99%
[2]; pH 1.0, 9 min
  intrinsic dissolution (dissolution rate): 99%
[2]; pH 4.5, 0 min
  intrinsic dissolution (dissolution rate): 0%
[2]; pH 4.5, 1 min
  intrinsic dissolution (dissolution rate): 60%
[2]; pH 4.5, 3 min
  intrinsic dissolution (dissolution rate): 91%
[2]; pH 4.5, 5 min
  intrinsic dissolution (dissolution rate): 95%
[2]; pH 4.5, 7 min
  intrinsic dissolution (dissolution rate): 95%
[2]; pH 4.5, 9 min
  intrinsic dissolution (dissolution rate): 96%
[2]; pH 6.8, 0 min
  intrinsic dissolution (dissolution rate): 0%
[2]; pH 6.8, 1 min
  intrinsic dissolution (dissolution rate): 38%
[2]; pH 6.8, 3 min
  intrinsic dissolution (dissolution rate): 79%
[2]; pH 6.8, 5 min
  intrinsic dissolution (dissolution rate): 92%
[2]; pH 6.8, 7 min
  intrinsic dissolution (dissolution rate): 94%
[2]; pH 6.8, 9 min
  intrinsic dissolution (dissolution rate): 94%
[2]; pH 7.4, 0 min
  intrinsic dissolution (dissolution rate): 0%
[2]; pH 7.4, 1 min
  intrinsic dissolution (dissolution rate): 27%
[2]; pH 7.4, 3 min
  intrinsic dissolution (dissolution rate): 65%
[2]; pH 7.4, 5 min
  intrinsic dissolution (dissolution rate): 80%
[2]; pH 7.4, 7 min
  intrinsic dissolution (dissolution rate): 89%
[2]; pH 7.4, 9 min
  intrinsic dissolution (dissolution rate): 92%
[3]; 0.1 M HCl, pH start 1.11
  pH end: 0.83
[3]; 0.15N NaOH, pH start 13.08
  pH end: 8.21
[3]; SIF sp pH 6.8, pH start 6.82
  pH end: 6.23
[3]; acetate pH 4.5, pH start 4.54
  pH end: 4.29
[3]; citrate pH 6.8, pH start 6.83
  pH end: 6.17
[3]; citrate pH 7.4, pH start 7.39
  pH end: 6.33
[3]; pH 1.11, aqueous buffer, 0.1 M HCl, pH start 1.11, 24 hours at 25 °C
  solubility thermodynamic at 24 h: 312 mg/mL
[3]; pH 13.08, aqueous buffer, 0.15N NaOH, pH start 13.08, 24 hours at 25 °C
  solubility thermodynamic at 24 h: 66 mg/mL
[3]; water
  pH end: 4.63
[4]
  ethanol induced dose dumping: no ethanol induced dose dumping

## CC[C@@H](c1cccc(O)c1)[C@@H](C)CN(C)C [Tapentadol, (-)-(1R,2R)-3-(3-dimethylamino-1-ethyl-2-methyl-propyl)-phenol]
[1]; 100 mg
  Maximum individual Cmax ratio with 40% alcohol: 4.38
  mean increase in Cmax ratio relative to drug co-ingested with 0% alcohol: 1.48
[1]; 250 mg
  Maximum individual Cmax ratio with 40% alcohol: 2.67
  mean increase in Cmax ratio relative to drug co-ingested with 0% alcohol: 1.28

## Tapentadol dihydrogenphosphate
[2]; at all tested pH values
  dissolution rate compared with Tapentadol hydrochloride: significantly slower dissolution rate
[2]; pH 1.0, 0 min
  intrinsic dissolution (dissolution rate): 0%
[2]; pH 1.0, 1 min
  intrinsic dissolution (dissolution rate): 14%
[2]; pH 1.0, 3 min
  intrinsic dissolution (dissolution rate): 35%
[2]; pH 1.0, 5 min
  intrinsic dissolution (dissolution rate): 56%
[2]; pH 1.0, 7 min
  intrinsic dissolution (dissolution rate): 78%
[2]; pH 1.0, 9 min
  intrinsic dissolution (dissolution rate): 84%
[2]; pH 4.5, 0 min
  intrinsic dissolution (dissolution rate): 0%
[2]; pH 4.5, 1 min
  intrinsic dissolution (dissolution rate): 12%
[2]; pH 4.5, 3 min
  intrinsic dissolution (dissolution rate): 30%
[2]; pH 4.5, 5 min
  intrinsic dissolution (dissolution rate): 49%
[2]; pH 4.5, 7 min
  intrinsic dissolution (dissolution rate): 73%
[2]; pH 4.5, 9 min
  intrinsic dissolution (dissolution rate): 86%
[2]; pH 6.8, 0 min
  intrinsic dissolution (dissolution rate): 0%
[2]; pH 6.8, 1 min
  intrinsic dissolution (dissolution rate): 11%
[2]; pH 6.8, 3 min
  intrinsic dissolution (dissolution rate): 29%
[2]; pH 6.8, 5 min
  intrinsic dissolution (dissolution rate): 48%
[2]; pH 6.8, 7 min
  intrinsic dissolution (dissolution rate): 66%
[2]; pH 6.8, 9 min
  intrinsic dissolution (dissolution rate): 77%
[2]; pH 7.4, 0 min
  intrinsic dissolution (dissolution rate): 0%
[2]; pH 7.4, 1 min
  intrinsic dissolution (dissolution rate): 12%
[2]; pH 7.4, 3 min
  intrinsic dissolution (dissolution rate): 30%
[2]; pH 7.4, 5 min
  intrinsic dissolution (dissolution rate): 46%
[2]; pH 7.4, 7 min
  intrinsic dissolution (dissolution rate): 63%
[2]; pH 7.4, 9 min
  intrinsic dissolution (dissolution rate): 78%
[3]; 0.1 M HCl, pH start 1.11
  pH end: 2.55
[3]; 0.1 M HCl, pH start 1.11, 24 hours at 25 °C
  thermodynamic solubility, assay expressed as base: 24.3 g/100 mL
[3]; 0.15N NaOH, pH start 13.08
  pH end: 8.09
[3]; 0.15N NaOH, pH start 13.08, 24 hours at 25 °C
  thermodynamic solubility, assay expressed as base: 6.5 g/100 mL
[3]; SIF sp pH 6.8, pH start 6.82
  pH end: 2.81
[3]; SIF sp pH 6.8, pH start 6.82, 24 hours at 25 °C
  thermodynamic solubility, assay expressed as base: 20.2 g/100 mL
[3]; acetate pH 4.5, pH start 4.54
  pH end: 2.81
[3]; acetate pH 4.5, pH start 4.54, 24 hours at 25 °C
  thermodynamic solubility, assay expressed as base: 21.2 g/100 mL
[3]; citrate pH 6.8, pH start 6.83
  pH end: 3.15
[3]; citrate pH 6.8, pH start 6.83, 24 hours at 25 °C
  thermodynamic solubility, assay expressed as base: 19.3 g/100 mL
[3]; citrate pH 7.4, pH start 7.39
  pH end: 3.16
[3]; citrate pH 7.4, pH start 7.39, 24 hours at 25 °C
  thermodynamic solubility, assay expressed as base: 19.0 g/100 mL
[3]; under all tested conditions
  thermodynamic solubility compared with Tapentadol hydrochloride: below that of Tapentadol hydrochloride
[3]; water
  pH end: 2.75
[3]; water, 24 hours at 25 °C
  thermodynamic solubility, assay expressed as base: 21.4 g/100 mL
[4]
  ethanol induced dose dumping: no ethanol induced dose dumping
[4]; 0.1 N HCl (pH 1.0) containing 40 vol.-% ethanol, same excipients in same amounts
  additional retardant effect in aqueous ethanol compared to Tapentadol hydrochloride: significantly stronger
[4]; pH 4.5, aqueous buffer without ethanol
  time difference to a release of 70% compared to Tapentadol hydrochloride: more than one
